Results reported in patent publication US20090087909A1, “Use of Trehalose in Conifer Somatic Embryogenesis to Increase Germination Vigor” (Weyerhaeuser Company, priority 2007, published 2009).

Tested on: Somatic embryos of Loblolly pine, genotypes C and D
Experiment: Germination rate, yield, germinants/ml, root and hypocotyl length, genotypes C and D (Example 4)
Type: cell-based, Loblolly pine (Pinus taeda)
Protocol: Methods: Somatic embryos of Loblolly pine, genotypes C and D, were cultured as described in EXAMPLE 1 up to incubation in the maintenance media. After incubation in maintenance media using the methods described in EXAMPLE 1, advanced early stage somatic embryos were plated on semi-solid development medium BM3 (with 25 ppm ABA, 1% glucose and 2.5% maltose) at 25 embryos per plate, 15 plates per genotype. Specifically, at five weeks after plating, the media for 10 treatment plates per genotype were replaced with modified development media BM3 containing 5 ppm ABA instead of 25 ppm ABA. […]
After development, the embryos were transferred to stratification medium BM4, and germinated on medium BM5, as described in EXAMPLE 1. After 6 weeks incubation on germination medium, the embryos were assessed for germination rate, root length, hypocotyls length, and epicotyl length. […]
Plate yield was determined during singulation at eight weeks by counting the number of embryos present. […]
Data for germination rate was analyzed with a generalized linear model with a logit link. Yield, germinants/ml, root length, and hypocotyl length data were analyzed with a mixed linear model. […] When variance among all ten treatments was detected, the response means for the trehalose treatments only were compared using Fisher's LSD for multiple comparisons.

OC[C@H]1O[C@H](O[C@H]2O[C@H](CO)[C@@H](O)[C@H](O)[C@H]2O)[C@H](O)[C@@H](O)[C@@H]1O [trehalose, α-D-glucopyranosyl-[1,1]-α-D-glucopyranoside]
Hypocotyl Length LS mean (combined genotypes C and D): positive effect on the hypocotyl length | Root Length genotype C mean (genotype C): induces greater root length development
